Data taken from patent publication US9700533B2, “Maternal chelation for embryo, fetal and infant benefit” (priority 2005, dated 2017).
Read-outs that look alike come from different tables or passages of the source.

Legend:
[1] = Case 5
Method: (§1) The terms “diagnostic provocation” and “chelation-provoked urine tests” and related terms refer to a procedure whereby the patient is administered one of more dosages of chelators, after which the patient's urine is collected for a defined period of time. The collected urine is analyzed for metal content, the metal having been removed from the patient's body by the chelators. The results of this procedure can indicate which metals are present in the patient's body and the approximate levels of the metals, which is subsequently used in designing a course of chelation therapy.
(§2) The metals may be measured with or without prior chelation provocation. The standard values accepted by medical laboratories are measured without chelation provocation. Treatment with chelation medication mobilizes metal stores within in the body to be detected in the urine, thus values obtained post-provocation will be increased.

[2] = not given; remark: listed apart in the source
[3] = Chelation-provoked urine test, urinary cadmium; format: in vivo, human
Method: as §1, §2

[4] = Chelation-provoked urine test, urinary uranium; format: in vivo, human
Method: as §1, §2

[5] = Chelation-provoked urine test, urinary tin; format: in vivo, human; conditions: Case 14
Method: as §1, §2

[6] = Case 14
Method: as §1, §2

[7] = Case 14; remark: listed apart in the source
Method: as §1, §2

[8] = Chelation-provoked urine test, urinary lead
Method: as §1, §2

[9] = Chelation-provoked urine test, urinary nickel; format: in vivo, human
Method: as §1, §2

[10] = Maternal chelation treatment, pregnancy, child and patient outcome; format: in vivo, human
[11] = Chelation-provoked urine test, metals revealed (in words)
Method: as §1, §2

[12] = Chelation-provoked urine test, urinary tungsten; format: in vivo, human; conditions: Case 7; one 300-mg capsule DMPS, 6 hour urine
Method: as §1, §2

[13] = Case 14, EDTA series, June 2004 after intravenous EDTA and DMPS chelation treatments
[14] = Case 14, EDTA series, long-term follow up October 2005 after a little DMSA with essential daily defense
[15] = Case 14, intravenous EDTA provocation January 2004, during the treatment period
[16] = Case 13, 3 grams EDTA and 3 grams vitamin C intravenous push, 6 hour collection
[17] = Case 5, EDTA provocation, before treatment
[18] = EDTA series, June 2004 after intravenous EDTA and DMPS chelation treatments
[19] = EDTA series, long-term follow up October 2005 after a little DMSA with essential daily defense
[20] = intravenous EDTA provocation January 2004, during the treatment period
[21] = Case 5, EDTA provocation, previously (before treatment)
[22] = Case 5, DMPS chelation provocation, before treatment
[23] = Case 5, DMPS provocation, previously (before treatment)
[24] = Case 14, DMPS provocation October 2003, before treatment
[25] = Case 14, DMPS series, follow up October 2005 after oral DMSA and essential daily defense
[26] = Case 14, after series of intravenous DMPS chelation treatments October 2003 to May 2004
[27] = Case 7, one 300-mg capsule DMPS, 6 hour urine
[28] = DMPS provocation October 2003, before treatment
[29] = DMPS series, follow up October 2005 after oral DMSA and essential daily defense
[30] = after series of intravenous DMPS chelation treatments October 2003 to May 2004

SMILES: O=C(O)CN(CCN(CC(=O)O)CC(=O)O)CC(=O)O [EDTA, Ethylenediamine Tetra-acetic Acid]
- urinary antimony [13]: 0.15 mcg/g creatinine
- urinary antimony [14]: 0.09 mcg/g creatinine
- urinary antimony [15]: 0.18 mcg/g creatinine
- urinary aluminum ([1]; EDTA provocation, before treatment): 176.8 (normal <98.7) mcg/g creatinine
- urinary aluminum, times normal ([1]; EDTA provocation, previously (before treatment)): 2 × normal
- urinary aluminum, times normal ([1]; repeat EDTA provocation after calcium EDTA + vitamin C IV and oral DMSA treatment): 0.2 × normal
- urinary mercury [2, 16]: 3.09 mcg/g creatinine
- urinary mercury [2, 13]: 0 mcg/g creatinine
- urinary mercury [2, 14]: 9.4 mcg/g creatinine
- urinary mercury [2, 15]: 0 mcg/g creatinine
- urinary cadmium [3, 17]: 3.18 (normal <0.76) mcg/g creatinine
- urinary cadmium [3, 16]: 0.86 mcg/g creatinine
- urinary cadmium [3, 13]: 1.75 mcg/g creatinine
- urinary cadmium [3, 14]: 2.66 mcg/g creatinine
- urinary cadmium [3, 15]: 1.59 mcg/g creatinine
- urinary uranium [4, 17]: 0.33 (normal <0.013) mcg/g creatinine
- urinary uranium, times the reference range ([4]; Case 9, 3 grams calcium EDTA in 100 cc NS over 30 minutes, 6 hour urine): > 40 × the reference range
- urinary uranium [4, 14]: 0.012 mcg/g creatinine
- urinary tin [5, 18]: 0.3 mcg/g creatinine
- urinary tin [5, 19]: 0.4 mcg/g creatinine
- urinary tin [5, 20]: 0.6 mcg/g creatinine
- urinary thorium [6, 18]: 0.06 mcg/g creatinine
- urinary thorium [6, 19]: 0 mcg/g creatinine
- urinary thorium [6, 20]: 0.22 mcg/g creatinine
- urinary arsenic [7, 18]: 32 mcg/g creatinine
- urinary arsenic [7, 19]: 46 mcg/g creatinine
- urinary arsenic [7, 20]: 90 mcg/g creatinine
- urinary lead [8, 17]: 25.14 (normal <1.41) mcg/g creatinine
- urinary lead, times normal [8, 21]: 18 × normal
- urinary lead, times normal ([8]; Case 5, repeat EDTA provocation after 3 g calcium EDTA + 3 g vitamin C IV two times per week and DMSA 500 mg per day orally): 8 × normal
- urinary lead [8, 16]: 6.15 mcg/g creatinine
- urinary lead [8, 13]: 5.5 mcg/g creatinine
- urinary lead [8, 14]: 7.97 mcg/g creatinine
- urinary lead [8, 15]: 4.6 mcg/g creatinine
- urinary nickel [9, 17]: 36.9 (normal <9.5) mcg/g creatinine
- urinary nickel, times normal [9, 21]: 4 × normal
- urinary nickel, times normal ([9]; Case 5, repeat EDTA provocation after calcium EDTA + vitamin C IV and oral DMSA treatment): 3 × normal
- urinary nickel [9, 13]: 30 mcg/g creatinine
- urinary nickel [9, 14]: 26 mcg/g creatinine
- urinary nickel [9, 15]: 41 mcg/g creatinine
- child outcome after delivery ([10]; Case 8, oral EDTA 3000 mg per day with vitamin C, selenium and garlic): healthy and neurologically normal
- delivery outcome ([10]; Case 8, parent with lead and mercury, oral EDTA 3000 mg per day with vitamin C 5000 mg per day, selenium 200 micrograms three times per day, garlic 6000 mg per day): normal delivery with no evidence of fetal distress
- neurological development of the child ([10]; Case 13, child, parents had ten intravenous EDTA chelations): admirable neurological development
- metals excreted on provocation ([11]; Case 9, postpartum, 3 grams calcium EDTA in 100 cc NS over 30 minutes, 6 hour urine): significant excretion of lead, mercury, cadmium and uranium
- metals revealed on provocation ([11]; Case 11, 3 grams calcium EDTA in 100 cc normal saline IV over 30 minutes, 6 hour urine): elevated levels of lead, mercury, aluminum, cadmium, gadolinium, gallium, tin, tungsten, and uranium

SMILES: O=C([O-])CN(CCN(CC(=O)[O-])CC(=O)[O-])CC(=O)[O-].[Ca+2].[Na+].[Na+] [calcium EDTA]
- chronic fatigue ([10]; Case 5, calcium EDTA + vitamin C IV together with oral DMSA): chronic fatigue improved
- neurological development of the baby ([10]; Case 5, parent treated preconceptionally with calcium EDTA + vitamin C IV and oral DMSA): above average neurological development

SMILES: O=S(=O)(O)CC(S)CS (centres unmarked) [DMPS, Dimercaptopropanesulfonic Acid]
- urinary antimony [22]: 0.84 (normal <0.14) mcg/g creatinine
- urinary antimony, times normal [23]: 6 × normal
- urinary antimony [24]: 0.48 (normal <0.14) mcg/g creatinine
- urinary antimony [25]: 0.18 mcg/g creatinine
- urinary antimony [26]: 0.05 mcg/g creatinine
- urinary mercury [2, 22]: 38.55 (normal <6.97) mcg/g creatinine
- urinary mercury, times normal [2, 23]: 5 × normal
- urinary mercury [2, 24]: 7.3 (normal <2.14) mcg/g creatinine
- urinary mercury [2, 25]: 4.6 mcg/g creatinine
- urinary mercury [2, 26]: 6 mcg/g creatinine
- urinary cadmium [3, 24]: 0.82 (normal <0.64) mcg/g creatinine
- urinary cadmium [3, 25]: 0.17 mcg/g creatinine
- urinary cadmium [3, 26]: 0.16 mcg/g creatinine
- urinary uranium [4, 27]: 0.034 (normal <0.013)
- urinary uranium [4, 24]: 0.042 (normal <0.026) mcg/g creatinine
- urinary uranium [4, 25]: 3 mcg/g creatinine
- urinary uranium [4, 26]: 0 mcg/g creatinine
- urinary tungsten [12]: 7.07 (normal <0.34)
- urinary tin [5, 28]: 10.4 (normal <2.04) mcg/g creatinine
- urinary tin [5, 29]: 3.03 mcg/g creatinine
- urinary tin [5, 30]: 0.4 mcg/g creatinine
- urinary thorium [6, 28]: 0 (normal <0.124) mcg/g creatinine
- urinary thorium [6, 29]: 0 mcg/g creatinine
- urinary thorium [6, 30]: 0.019 mcg/g creatinine
- urinary arsenic [7, 28]: 159 (normal <50) mcg/g creatinine
- urinary arsenic [7, 29]: 34 mcg/g creatinine
- urinary arsenic [7, 30]: 20 mcg/g creatinine
- urinary lead [8, 22]: 6.39 (normal <1.41) mcg/g creatinine
- urinary lead, times normal [8, 23]: 4 × normal
- urinary lead [8, 27]: 4.6 (normal <1.41)
- urinary lead [8, 24]: 7.9 (normal <1.41) mcg/g creatinine
- urinary lead [8, 25]: 2.6 mcg/g creatinine
- urinary lead [8, 26]: 0.9 mcg/g creatinine
- urinary nickel [9, 27]: 132 (normal <9.5)
- urinary nickel [9, 24]: 9.3 (normal <9.5) mcg/g creatinine
- urinary nickel [9, 25]: 0.7 mcg/g creatinine
- urinary nickel [9, 26]: 3.2 mcg/g creatinine
- metals revealed on provocation ([11]; Case 10, DMPS 300 mg PO x1, 6 hour urine): elevated levels of lead, mercury, aluminum, antimony, cadmium, nickel, tin, tungsten and uranium
- metals revealed on provocation ([11]; Case 12, DMPS 300 mg PO x2, 6 hour urine): marked elevation of nickel as well as abnormally elevation of arsenic, cadmium and lead
